Laboratory results reported in US7126027B2, “N-[(1-dimethylaminocycloalkyl)methyl]benzamide derivatives” (Akzo Nobel N.V., priority 2002, dated 2006).

Legend:
hGlyT-2 = molecular target: T1, hGlyT-2 (Homo sapiens, UniProt Q9Y345); test: Glycine uptake assay, CHO cells stably transfected with hGlyT-2; type: cell-based; conditions: [3H]-glycine 30 μM, 37° C., 10 minutes, read-out: Inhibition of glycine transport by hGlyT-2 IC50
T1 construct: expressed in transfected cells
T1 sequence (Q9Y345 1-797): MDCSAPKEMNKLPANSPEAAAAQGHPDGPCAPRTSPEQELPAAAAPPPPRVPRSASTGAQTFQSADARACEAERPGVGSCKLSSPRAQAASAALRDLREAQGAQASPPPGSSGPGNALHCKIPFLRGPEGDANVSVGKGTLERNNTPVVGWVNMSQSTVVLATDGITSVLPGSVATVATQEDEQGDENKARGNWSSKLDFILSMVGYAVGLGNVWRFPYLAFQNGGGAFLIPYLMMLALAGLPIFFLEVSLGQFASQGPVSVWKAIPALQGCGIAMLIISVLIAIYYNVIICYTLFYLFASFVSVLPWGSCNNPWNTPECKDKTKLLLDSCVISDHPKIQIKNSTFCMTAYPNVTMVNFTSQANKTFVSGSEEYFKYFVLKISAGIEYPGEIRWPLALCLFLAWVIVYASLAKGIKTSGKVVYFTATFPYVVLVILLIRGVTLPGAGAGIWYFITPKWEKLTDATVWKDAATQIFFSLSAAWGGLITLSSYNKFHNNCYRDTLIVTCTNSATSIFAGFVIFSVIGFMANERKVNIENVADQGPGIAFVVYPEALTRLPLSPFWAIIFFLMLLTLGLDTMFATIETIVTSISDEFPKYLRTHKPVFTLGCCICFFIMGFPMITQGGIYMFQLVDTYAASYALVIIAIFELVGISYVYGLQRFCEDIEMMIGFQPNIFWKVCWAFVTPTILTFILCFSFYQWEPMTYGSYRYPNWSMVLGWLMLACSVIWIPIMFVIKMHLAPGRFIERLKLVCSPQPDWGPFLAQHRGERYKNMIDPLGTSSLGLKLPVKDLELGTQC
Description: Glycine uptake assays were performed as described by Morrow et al. (FEBS Lett. 1998, 439, 334–340) using CHO cells stably transfected with either hGlyT-1b or hGlyT-2. Cells were grown in 96 well microtitre plates (30,000 cells/well) for 24–48 hours before removal of culture medium and addition of Hanks Balanced Salt Solution (HBSS) containing [^3H]-glycine (30 μM) and varying concentrations of test compounds. Plates were incubated at 37° C. for 10 minutes and uptake terminated by washing three times with ice-cold HBSS. After removal of excess liquid, scintillation cocktail was added to each well, prior to counting in a plate counter. Data were analysed using the GraphPad Prism™ analysis package and the sigmoid dose-response curve fitting option to produce IC50 (the concentration of test compound producing 50% inhibition of uptake) values.

rats = test: Chung model of neuropathy (L5 spinal nerve ligation, von Frey withdrawal threshold); type: in vivo, rat; conditions: twenty minutes after subcutaneous injection; Example 2 20 mg/kg, morphine sulphate 2 mg/kg, gabapentin 50 mg/kg; post-surgery pre-drug 0.8±0.1 g

COc1cc(C(=O)NCC2(N(C)C)CCCC2)cc(OC)c1OCC(C)C [Example 15, 3,5-Dimethoxy-4-(2-methylpropoxy)-N-[(1-dimethylaminocyclopentyl)methyl]benzamide]
IC50 (hGlyT-2): 79 nM

Cc1cc(C(=O)NCC2(N(C)C)CCCC2)cc(C)c1OCc1ccsc1 [Example 20, 3,5-Dimethyl-4-(3-thienyl)methoxy-N-[(1-dimethylaminocyclopentyl)methyl]benzamide]
IC50 (hGlyT-2): 32 nM

COc1cc(C(=O)NCC2(N(C)C)CCCC2)cc(OC)c1OCc1ccccc1 [Example 2, 4-Benzyloxy-3,5-dimethoxy-N-[1-(dimethylaminocyclopentyl)methyl]benzamide]
Withdrawal threshold (rats): 4.7 ± 1.15 g

COc1cc(C(=O)NCC2(N(C)C)CCCCC2)cc(OC)c1OCc1ccccc1 [Example 5, 4-Benzyloxy-3,5-dimethoxy-N-[(1-dimethylaminocyclohexyl)methyl]benzamide]
IC50 (hGlyT-2): 84 nM

COc1cc(C(=O)NCC2(N(C)C)CCCC2)cc(OC)c1OCc1cccc2ccccc12 [Example 19, 3,5-Dimethoxy-4-(1-naphthyl)methoxy-N-[(1-dimethylaminocyclopentyl)methyl]benzamide]
IC50 (hGlyT-2): 215 nM

CN1CC[C@]23c4c5ccc(O)c4O[C@H]2[C@@H](O)C=C[C@H]3[C@H]1C5.O=S(=O)(O)O [morphine, morphine sulphate]
Withdrawal threshold (rats): 4.2 ± 1.5 g

COc1cc(C(=O)NCC2(N(C)C)CCCC2)cc(OC)c1OCc1ccc(C(F)(F)F)cc1 [Example 14, 3,5-Dimethoxy-4-(4-trifluoromethylbenzyloxy)-N-[(1-dimethylaminocyclopentyl)methyl]benzamide]
IC50 (hGlyT-2): 76 nM

Cc1cc(C(=O)NCC2(N(C)C)CCCCCC2)cc(C)c1OCc1ccccc1 [Example 16, 4-Benzyloxy-3,5-dimethyl-N-[(1-dimethylaminocycloheptyl)methyl]benzamide]
IC50 (hGlyT-2): 92 nM

NCC1(CC(=O)O)CCCCC1 [gabapentin]
Withdrawal threshold (rats): 3.2 ± 1.5 g

Cc1cc(C(=O)NCC2(N(C)C)CCCC2)cc(C)c1OCc1ccccc1 [Example 9, 4-Benzyloxy-3,5-dimethyl-N-[(1-dimethylaminocyclopentyl)methyl]benzamide]
IC50 (hGlyT-2): 27 nM

Cc1cc(C(=O)NCC2(N(C)C)CCC2)cc(C)c1OCc1ccccc1 [Example 8, 4-Benzyloxy-3,5-dimethyl-N-[1-(dimethylaminocyclobutyl)methyl]benzamide]
IC50 (hGlyT-2): 16 nM

COc1cc(C(=O)NCC2(N(C)C)CCCC2)cc(OC)c1OC1CCCC1 [Example 21, 4-Cyclopentyloxy-3,5-dimethoxy-N-[(1-dimethylaminocyclopentyl)methyl]benzamide]
IC50 (hGlyT-2): 329 nM

COc1cc(C(=O)NCC2(N(C)C)CCCC2)cc(OC)c1OCc1ccc(Cl)cc1 [Example 12, 4-(4-Chloro)benzyloxy-3,5-dimethoxy-N-[1-(dimethylaminocyclopentyl)methyl]benzamide]
IC50 (hGlyT-2): 44 nM

COc1cc(C(=O)NCC2(N(C)C)CCCCC2)cc(OC)c1OCC1CCCCC1 [Example 13, 4-(Cyclohexylmethoxy)-3,5-dimethoxy-N-[(1-dimethylaminocyclohexyl)methyl]benzamide]
IC50 (hGlyT-2): 71 nM

COc1cc(C(=O)NCC2(N(C)C)CCCC2)cc(OC)c1OC(C)c1ccccc1 (stereo not drawn) [Example 11, 3,5-Dimethoxy-4-(1-phenyl)ethoxy-N-[1-(dimethylaminocyclopentyl)methyl]benzamide]
IC50 (hGlyT-2): 35 nM

COc1cc(C(=O)NCC2(N(C)C)CCCC2)cc(OC)c1OCCc1ccccc1 [Example 18, 3,5-Dimethoxy-4-(2-phenylethoxy)-N-[(1-dimethylaminocyclopentyl)methyl]benzamide]
IC50 (hGlyT-2): 156 nM

CCCCOc1c(OC)cc(C(=O)NCC2(N(C)C)CCCC2)cc1OC [Example 7, 4-n-Butyloxy-3,5-dimethoxy-N-[(1-dimethylaminocyclopentyl)methyl]benzamide]
IC50 (hGlyT-2): 77 nM

COc1cc(C(=O)NCC2(N(C)C)CCCC2)cc(OC)c1OCc1ccc(C)cc1 [Example 10, 3,5-Dimethoxy-4-(4-methylbenzyloxy)-N-[(1-dimethylaminocyclopentyl)methyl]benzamide]
IC50 (hGlyT-2): 30 nM
